Assay: gradient 5% acetonitrile 3 min, to 50% in 2 min, to 85% in 15 min, held 3 min, 100 µL/min
Conditions: column: Zorbax Extend-C18 2.1 x 50 mm; eluents: water / acetonitrile, 0.1% formic acid
Outline: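 Standards, all pure, were combined into mixtures of ~100 molecules and run at 100 μL/min on a Zorbax Extend-C18 column (2.1 × 50 mm, 1.8 μm) with water and acetonitrile, each containing 0.1% formic acid. A coupled quadrupole time-of-flight mass spectrometer operated in positive and negative ionization mode. Retention time values come from computationally picked adduct peaks, each inspected manually.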

Row | SMILES | RP-LC retention time [s]
1 | Cc1ccc(-c2noc(Cc3nc(-c4ccc(F)cc4)cs3)n2)cc1 | 1310
2 | Cc1cc(OCC(=O)NCc2ccccc2Br)nc(N2CCN(c3ccccc3)CC2)n1 | 871
3 | OC[C@@H]1CN(Cc2cn[nH]c2-c2ccc(F)cc2)C[C@H]1c1ccccn1 | 586
4 | O=C(Cn1cnc2ccccc21)N1CCN(Cc2nc(-c3ccc(F)cc3)cs2)CC1 | 586
5 | CC(C)(NC(=O)C1CCC1)c1nc2c(c(C(N)=O)n1)OCCO2 | 586
6 | Cc1ccc(CNC(=O)Cc2csc3nc(-c4ccc(C)c(C)c4)cn23)cc1 | 896
7 | CCOC(=O)CNC(=O)NC(C(=O)N1CCc2ccccc21)c1ccccc1 (centres undefined) | 832
8 | Cc1noc(C2CN(C(=O)Nc3ccccc3F)CC23CCOCC3)n1 (centres undefined) | 694
9 | C=CCNC(=O)c1ccc2[nH]c(C)c(C)c2c1 | 568
10 | O=C(Cc1csc2nc(-c3ccccc3)cn12)NC1CCCCCCC1 | 877
11 | Cc1cnc(C(=O)NCC23CCC=C2N(C)C(=O)CC3)cn1 (centres undefined) | 666
12 | CCc1nnc(-c2nnc(N3CCCC3)c3ccccc23)o1 | 625
13 | Cc1ccc(S(=O)(=O)N2CCC3(CC2)NCCN=C3NCc2ccc(Cl)cc2)cc1 | 742
14 | O=C(CN1C(=O)C2CCCCN2c2ccc(S(=O)(=O)N3CCCCC3)cc21)NCc1ccccc1 (centres undefined) | 988
15 | Cc1ccc(-c2nc3ccc(C)cn3c2Nc2ccccc2C)cc1 | 788
16 | COc1cccc(S(=O)(=O)N2CCc3c(c(CN(C(C)=O)c4ccccc4)nn3C)C2)c1 | 793
17 | COc1cccc(NC(=O)Cn2nc3cc(C)nc(N4CCCC4)n3c2=O)c1 | 760
18 | Cc1noc(CNC(=O)c2cc(C)on2)n1 | 592
19 | CC(=O)NCc1c(-c2ccc(Cl)cc2)nc2n1CCS2 | 568
20 | Cc1cc(C)c(S(=O)(=O)N2CCCC(C(=O)NC3CC3)C2)c(C)c1 (centres undefined) | 842
21 | COc1ccccc1-c1nc2cnccn2c1NCCC(=O)N1CCc2ccccc21 | 772
22 | CO[C@H]1C(=O)N(C(C)C)[C@H]1C1CCN(S(=O)(=O)c2cccc3nsnc23)CC1 | 831
23 | Cc1oc(-c2[nH]ncc2C(=O)N2CCCCC2)cc1S(=O)(=O)Nc1ccc(F)c(F)c1 | 780

Row | SMILES | RP-LC retention time [s]
24 | Cc1ccc(C)c(N2CCN(c3ccnc(SCC(=O)Nc4ccc(F)cc4)n3)CC2)c1 | 891
25 | O=C(NC1CC1)C1Cc2ccccc2CN1S(=O)(=O)c1ccc(Cl)cc1 (centres undefined) | 909
26 | Cc1ccc(NC(=O)N2CCCC2c2nncn2C2CCCC2)c(C)c1 (centres undefined) | 692
27 | O=C(Cn1nc2ccc(SCc3ccc(Cl)cc3)nn2c1=O)NC1CCCCC1 | 870
28 | CCNC(=O)C1CCc2sc(C(=O)N3CCCCC3)cc2C1 (centres undefined) | 694
29 | Cc1nc(-c2cn(C(C)C)c3ncccc23)sc1C(=O)N1CCN(C)CC1 | 611
30 | CCc1noc(NC(C)=O)c1-c1ccc(OC)c(S(=O)(=O)N2CCc3ccccc3C2)c1 | 628
31 | COCC(=O)Nc1ccc2c(c1)CCC(=O)N2C | 613
32 | Cc1ccc2c(c1)N(Cc1cccc(F)c1)N=C(C(=O)N1CCCC1)S2(=O)=O | 876
33 | Cc1csc(-c2cc(S(=O)(=O)NCCCN3CCC(C)CC3)c(C)s2)n1 | 675
34 | CC(CCc1ccccc1)NC(=O)CN1CCCN(Cc2cccc(Cl)c2)S1(=O)=O (centres undefined) | 1120
35 | COc1ccc(C(=O)N2CCCCC2c2nncn2CC2CC2)cc1F (centres undefined) | 718
36 | CCC(C)NC(=O)C1CCN(Cc2c(C)n(CC)c3ccccc23)CC1 (centres undefined) | 667
37 | Nc1ccc(SCc2nnc(-c3cccc(F)c3)o2)cc1 | 784
38 | Cc1noc(-c2ccc(S(=O)(=O)N3CCN(c4ccccn4)CC3)s2)c1C | 730
39 | Cc1c(Cl)cccc1-n1ccnc(NC(=O)Nc2ccc3c(c2)OCO3)c1=O | 995
40 | Cc1cccnc1NC(=O)C1c2ccccc2C(=O)N(Cc2ccccc2)C12CCCC2 (centres undefined) | 782
41 | CCC(C(=O)NCCc1ccccc1)n1cnc2nc3c(cc2c1=O)CCCC3 (centres undefined) | 785
42 | CS(=O)(=O)N1CCC(CNC(=O)CSCc2ccccc2)CC1 | 691
43 | COc1cc2c(cc1/C=C/[N+](=O)[O-])OC(C)C2 (centres undefined) | 908
44 | NC(=O)C1CCN(C(=O)c2nnn(-c3ccc(Cl)cc3)c2-c2cccnc2)CC1 | 633
45 | COCC(=O)N(C1CCOCC1)C1CCN(S(=O)(=O)c2cccnc2)CC1 | 641
46 | COc1ccc(-c2noc(-c3nn(-c4cccc(F)c4)ccc3=O)n2)cc1 | 874

Row | SMILES | RP-LC retention time [s]
47 | O=C(Nc1ccc(N2CCN(c3ccccc3)C2=O)nc1)c1cc(F)cc(F)c1 | 1020
48 | O=c1ccc(N2CCC(NS(=O)(=O)c3cccnc3)CC2)nn1CC1CC1 | 700
49 | COc1ccc(C2Cn3nnc(-c4nc(-c5ccc(F)c(F)c5)no4)c3CO2)cc1 (centres undefined) | 1180
50 | O=C(Cn1c(=O)c2cc(C3CC3)nn2c2ncccc21)NCc1ccccc1 | 727
51 | COc1ccccc1-c1noc(C2CCCN2C(=O)CSc2ccncc2)n1 (centres undefined) | 611
52 | O=C(CN1CCN(Cc2ccc(F)cc2Cl)C1=O)N1CCN(c2ccccc2)CC1 | 881
53 | CCc1nnc2sc(-c3cc(C)nc4ccc(Br)cc34)nn12 | 892
54 | COc1cccc(-c2csc(Cc3nc(-c4cccc(Cl)c4)no3)n2)c1 | 1280
55 | Cn1nc(COc2ccccc2)c2c1CCN(C(=O)Nc1ccccc1Cl)C2 | 889
56 | CN(C)c1ccc(NC(=O)Cn2c(=O)cc(-c3nc(C4CC4)no3)c3ccccc32)cc1 | 697
57 | O=C(NC1CC1)c1nc(C(=O)N2CCN(C3CCCCC3)CC2)cs1 | 601
58 | CC(C)CCNC(=O)N1CCC2(CC1)C(=O)N(C)c1ccccc12 | 813
59 | O=S(=O)(c1ccc(Cl)c(-c2nnc(-c3ccccc3)o2)c1)N1CCSCC1 | 1070
60 | O=C(CCNc1c(-c2cccc(F)c2)nc2cnccn12)NCc1ccc2c(c1)OCO2 | 712
61 | CCN1C(=O)COc2ccc(-c3nc(NC(=O)CC(C)C)sc3C)cc21 | 962
62 | CC(=O)N1CCC(C(=O)Nc2cccc(OCc3nnc(-c4ccccc4)o3)c2)CC1 | 716
63 | COC(=O)c1cccc(Nc2c(-c3ccc(OC)cc3)nc3cnccn23)c1 | 810
64 | Cc1occc1C(=O)NC1CCc2nn(C)c(=O)n2CC1 (centres undefined) | 604
65 | CCOC(=O)c1[nH]c(C)c(CCC(=O)N2CCCC(C(=O)NCc3ccc(N(C)C)cc3)C2)c1C (centres undefined) | 629
66 | CC(C)CNC(=O)c1ccc(CN2CCN(Cc3ccc(F)cc3)C(=O)C2=O)cc1 | 732
67 | CSc1ccc(NC(=O)C2CCN(C(=O)c3ncn4c3COC(c3ccc(F)cc3)C4)CC2)cc1 (centres undefined) | 864
68 | COc1ccc(-c2ncc3c(n2)CCN(C(=O)Nc2cc(Cl)ccc2C)C3)cc1 | 984
69 | O=C(Cn1cccc1-c1nnc(-c2ccccc2)o1)Nc1cccc(F)c1 | 960

Row | SMILES | RP-LC retention time [s]
70 | COc1ccc(OCc2noc(CNS(=O)(=O)Cc3ccccc3)n2)cc1 | 824
71 | COc1ccc(-c2ncc3c(n2)CCN(C(=O)c2ccc(Br)o2)C3)cc1 | 946
72 | Cc1ccc(S(=O)(=O)N2CC(F)(F)C[C@H]2CN2CCc3ccccc3C2)c(C)c1 | 816
73 | CCn1c(=O)c(N2CCCC(C(=O)NCCc3c[nH]c4ccc(C)cc34)C2)nc2ccccc21 (centres undefined) | 1030
74 | O=C(NCCC1=CCCCC1)C1CCCN(c2ncc(-c3cccc(F)c3)cn2)C1 (centres undefined) | 1220
75 | O=C(Nc1ccc2nc3n(c(=O)c2c1)CCCC3)Nc1ccccc1Br | 735
76 | COc1cc(OC)cc(C(=O)N(C)CCc2noc(C(=O)NCc3ccccc3)n2)c1 | 809
77 | Cc1ccccc1CNC(=O)C1CCCN(C(=O)C2Sc3ccccc3NC2=O)C1 (centres undefined) | 760
78 | Cc1cc(C)cc(C(=O)N2CCCC(C(=O)NCc3cccs3)C2)c1 (centres undefined) | 832
79 | COc1ccccc1-c1nc(Cn2nnc(-c3nc(-c4ccccc4C)no3)c2C)c(C)o1 | 1180
80 | CCOc1ccc(-n2cc(C(=O)OCc3ccccn3)c3ccccc3c2=O)cc1 | 750
81 | COc1cccc(-c2nnc(Cc3nc(-c4ccc(OC)c(OC)c4)no3)o2)c1 | 894
82 | O=C(NCc1ccc2c(c1)OCO2)C1CCN(C(=O)c2ccccc2F)CC1 | 719
83 | Cc1ccc(OCc2nnc3sc(C4COc5ccccc5O4)nn23)cc1 (centres undefined) | 1010
84 | CSc1ccc(-c2nc3cccc(C)n3c2Nc2ccc(C)cc2)cc1 | 824
85 | COc1ccc(-c2ccc(SCC(=O)Nc3cccc([N+](=O)[O-])c3)nn2)cc1OC | 793
86 | Cc1ncccc1C(=O)N1[C@H]2CC[C@@H]1c1cnc(-c3ccc(F)cc3)nc1C2 | 705
87 | COc1ccc(OC)c(C(O)CN2CCN(c3cc(C)ccc3C)CC2)c1 (centres undefined) | 758
88 | CN1CCN(CCNC(=O)c2cc(-c3ccccc3)cn2C)CC1 | 600
89 | CCOc1ccc2nc(Nc3ncc4c(n3)CC(c3ccccc3)CC4=O)nc(C)c2c1 (centres undefined) | 831

Reference: the METLIN SMRT retention time set (Domingo-Almenara et al. 2019)
